Series [1] relates to Jurkat. In words: Inhibition of cell proliferation of human Jurkat cells incubated for 72 hrs by Alamar blue assay. Type of series: functional, cell-based. In general terms: Resazurin is reduced to fluorescent resorufin, in cell work by metabolically active cells.
Another series relates to K562. In words: Growth inhibition of human K562 cells incubated for 48 hrs by trypan blue dye exclusion assay. Type of series: functional, cell-based.
Series [2] addresses T1, 6-phosphofructo-2-kinase/fructose-2,6-bisphosphatase 3 (Homo sapiens, UniProt Q16875). Conditions: 150 uM.
Description: Inhibition of recombinant PFKFB3 (unknown origin) assessed as reduction in enzyme kinetic rate at 150 uM
Series [3] concerns HL-60. In words: Growth inhibition of human HL60 cells incubated for 48 hrs by trypan blue dye exclusion assay. Type of series: functional, cell-based.
The test system of series [4] is MDA-MB-231. In words: Growth inhibition of human MDA-MB-231 cells incubated for 48 hrs by trypan blue dye exclusion assay. Type of series: functional, cell-based.
For the next series, the system named is A549. In words: Growth inhibition of human A549 cells incubated for 48 hrs by trypan blue dye exclusion assay. Type of series: functional, cell-based.
The species entered for the next series is Homo sapiens. Kind of series: Growth inhibition of human CRL11174 cells incubated for 48 hrs by trypan blue dye exclusion assay. Type of series: functional.
Series [5] can be described thus: Antitumor activity against human HL60 cells xenografted in Balb/c mouse assessed as tumor growth inhibition at 0.07 mg/g, ip dosed as 2 sequential daily injections followed by 7 consecutive days of without treatment. Type of series: functional, HL-60.
Series [6] concerns Jurkat. Kind of series: Reduction in lactate secretion in human Jurkat cells expressing inducible FLAG-tagged PFKFB at 10 uM after 8 hrs by lactate oxidase based colorimetric assay. Type of series: functional, cell-based.
Series [7] deals with Jurkat. In words: Reduction in NAD+ level in human Jurkat cells expressing inducible FLAG-tagged PFKFB at 10 uM after 24 hrs. Type of series: functional, cell-based.
The test system of series [8] is Jurkat. Kind of series: Suppression of glycolytic flux into alanine in human Jurkat cells expressing inducible FLAG-tagged PFKFB at 10 uM after 36 hrs by NMR spectroscopy. Type of series: functional, cell-based.
For series [9], the system named is Jurkat. In words: Inhibition of cell proliferation of human Jurkat cells expressing inducible FLAG-tagged PFKFB at 10 uM incubated for 36 hrs by trypan blue dye exclusion assay. Type of series: functional, cell-based.
Series [10] relates to Jurkat. Kind of series: Suppression of glycolytic flux into lactate in human Jurkat cells expressing inducible FLAG-tagged PFKFB at 10 uM after 36 hrs by NMR spectroscopy. Type of series: functional, cell-based.
Series [11] has as its system Jurkat. In words: Reduction in NADH level in human Jurkat cells expressing inducible FLAG-tagged PFKFB at 10 uM after 16 hrs. Type of series: functional, cell-based.
Series [12] can be described thus: Potency index, ratio of IC50 for 3BrPA to IC50 for test compound for growth inhibition of human NHBE cells immortalized with human telomerase and large-T antigen and transformed with mutated Ras protein at 1 uM incubated for 48 to 72 hrs by trypan blue dye exclusion assay. Type of series: functional.
Series [13] addresses T1, 6-phosphofructo-2-kinase/fructose-2,6-bisphosphatase 3. Kind of series: Mixed type inhibition of human PFKFB3 expressed in Escherichia coli BL21 (DE3) assessed as reduction in NADH consumption using fructose-6-phosphate incubated for 15 mins by spectrophotometry based pyruvate kinase and LDH enzyme coupled kinetic assay.
The subject of series [14] is MDA-MB-231. Kind of series: Antitumor activity against human MDA-MB-231 cells xenografted in Balb/c mouse assessed as tumor growth inhibition at 0.07 mg/g, ip dosed as cyclical regimen of 3 daily injections followed by 3 days of without treatment. Type of series: functional. A general note: Xenograft models place foreign cells or tissue in a host animal.
Series [15] has as its system Jurkat. In words: […] cell cycle arrest in human Jurkat cells expressing inducible FLAG-tagged PFKFB assessed as accumulation at G2/M phase by propidium iodide staining based flow cytometry. Type of series: functional.
The test system of series [16] is Mus musculus. Kind of series: Reduction in [18F]-2-DG uptake in tumor of C57B1/6 mouse transplanted with mouse LLC cells at 0.07 mg/g, ip after 30 mins post dose by micro-PET method. Type of series: functional, organism-based.
The subject of series [17] is Jurkat. In words: Potency index, ratio of IC50 for growth inhibition of PFKFB3+/+ht/LT/Ras human Jurkat cells to IC50 for growth inhibition of PFKFB3+/-ht/LT/Ras human Jurkat cells. Type of series: functional.
For series [18], the system named is NHBE. In words: Growth inhibition of human NHBE cells immortalized with human telomerase and large-T antigen and transformed with mutated Ras protein at 10 uM incubated for 48 to 72 hrs by trypan blue dye exclusion assay. Type of series: functional, cell-based.
Series [19] in a line: Growth inhibition of human NHBE cells at 33 uM incubated for 48 to 72 hrs by trypan blue dye exclusion assay. Type of series: cell-based.
Series [20] concerns Jurkat. Kind of series: Reduction in ATP level in human Jurkat cells expressing inducible FLAG-tagged PFKFB at 10 uM after 24 hrs. Type of series: functional, cell-based.
Series [21] deals with Jurkat. In words: Inhibition of cell proliferation of human Jurkat cells expressing inducible FLAG-tagged PFKFB incubated for 48 hrs by trypan blue dye exclusion assay. Type of series: functional, cell-based.
Series [22] has as its system Jurkat. Kind of series: Reduction in 2-deoxy-glucose uptake in human Jurkat cells expressing inducible FLAG-tagged PFKFB at 10 uM measured within 4 hrs using [14C]-2-deoxy-glucose by scintillation counting method. Type of series: functional, cell-based.
The nature of series [23]: Potency index, ratio of IC50 for 2-DG to IC50 for test compound for growth inhibition of human NHBE cells immortalized with human telomerase and large-T antigen and transformed with mutated Ras protein at 1 uM incubated for 48 to 72 hrs by trypan blue dye exclusion assay. Type of series: functional.
Series [24] has as its system Jurkat. In words: Reduction in Fru-2,6-BP production in human Jurkat cells expressing inducible FLAG-tagged PFKFB at 10 uM measured within 4 hrs. Type of series: functional, cell-based.
In series [25] the test system is NHBE. In words: Growth inhibition of human NHBE cells immortalized with human telomerase and large-T antigen and transformed with mutated Ras protein at 1 uM incubated for 48 to 72 hrs by trypan blue dye exclusion assay. Type of series: functional, cell-based.
In series [26] the test system is HL-60. Kind of series: Antitumor activity against human HL60 cells xenografted in Balb/c mouse assessed as tumor growth inhibition at 0.07 mg/g, ip dosed as 2 sequential daily injections followed by 7 consecutive days of without treatment and subsequent second dosing and measured on day9. Type of series: functional, organism-based.
The subject of series [27] is Mus musculus. In words: Reduction in F2,6BP production excised tumor of C57B1/6 mouse transplanted with mouse LLC cells at 0.07 mg/g, ip after 4 hrs post dose. Type of series: functional, organism-based.
Series [28] has as its system Mus musculus. In words: Reduction in [18F]-2-DG uptake in cardiac tissue of C57B1/6 mouse transplanted with mouse LLC cells at 0.07 mg/g, ip after 30 mins post dose by micro-PET method. Type of series: functional, organism-based.
For a further series, the system named is CT26. In words: Antitumor activity against mouse CT26 cells implanted in C57Bc16 mouse assessed as inhibition of tumor size at 20 or 23 mg/kg, ip measured during 7 to 22 days after tumor inoculation. Type of series: functional, organism-based.
The test system of a further series is U-87MG ATCC. Kind of series: Antitumor activity against human U87MG cells implanted in C57Bc16 mouse assessed as inhibition of tumor size at 20 mg/kg, ip measured during 7 to 25 days after tumor inoculation. Type of series: functional, organism-based.
The next series concerns Lewis lung carcinoma. Kind of series: Antitumor activity against mouse LLC cells implanted in C57Bc16 mouse assessed as inhibition of tumor size at 25 mg/kg, ip dosed on days 1,2 and 3 and 35 mg/kg, ip on days Antitumor activity against mouse LLC cells implanted in C57Bc16 mouse assessed as inhibition of tumor size at 25 mg/kg, ip dosed on days 7,8,9,13,14 and 15. Type of series: functional, organism-based.

Series [29] is described as follows: Solubility in Cremophore:EToH:saline solution in normal conditions using Amber vials after 4 hrs by HPLC method (reference value: 1 mg/ml at 0 hrs). Type of series: physicochemical.
Series [30] in a line: Solubility in Cremophore:EToH:saline solution in normal conditions using Amber vials after 8 hrs by HPLC method (reference value: 1 mg/ml at 0 hrs). Type of series: physicochemical.
Series [31] is described as follows: Solubility in Cremophore:EToH:saline solution in normal conditions using Amber vials after 2 hrs by HPLC method (reference value: 1 mg/ml at 0 hrs). Type of series: physicochemical.

The source made the active and inactive calls. No cut-off for these calls is given here. Some results are limits rather than exact numbers.

T1 sequence (Q16875 whole entry): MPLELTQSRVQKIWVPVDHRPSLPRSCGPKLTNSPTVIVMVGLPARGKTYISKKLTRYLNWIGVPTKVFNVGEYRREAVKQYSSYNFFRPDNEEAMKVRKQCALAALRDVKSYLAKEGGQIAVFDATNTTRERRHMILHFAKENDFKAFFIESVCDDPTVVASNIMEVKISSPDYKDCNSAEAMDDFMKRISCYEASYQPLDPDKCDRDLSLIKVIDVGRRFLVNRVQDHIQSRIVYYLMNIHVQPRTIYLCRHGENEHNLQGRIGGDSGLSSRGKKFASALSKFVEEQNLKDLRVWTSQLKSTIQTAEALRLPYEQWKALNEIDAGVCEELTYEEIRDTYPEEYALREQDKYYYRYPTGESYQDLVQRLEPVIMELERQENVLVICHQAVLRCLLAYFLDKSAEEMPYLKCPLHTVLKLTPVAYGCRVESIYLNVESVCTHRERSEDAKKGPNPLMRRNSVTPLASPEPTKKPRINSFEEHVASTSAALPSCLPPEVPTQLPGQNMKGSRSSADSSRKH

Consider `O=C(/C=C/c1cnc2ccccc2c1)c1ccncc1`, for which, in the series with Jurkat [1], the 50% inhibitory concentration (IC50) (in general, the point on the concentration scale where inhibition reaches its midpoint) was greater than 4 µM.
Turning to `O=C(/C=C/c1ccc2ccccc2n1)c1cccnc1`, the “growth inhibition (GI)” value with K562, in the series with HL-60 [3], in the series on MDA-MB-231 [4], in the series with A549 and in the series listed under Homo sapiens was “Active” each time. Further, the inhibition (in general, the share of the control response that was lost under treatment) in [2] was greater than 80%.
With `O=C(/C=C/c1cccc2ccccc12)c1ccncc1`, the “growth inhibition (GI)” value with K562, with HL-60 [3], with MDA-MB-231 [4], in the series with A549 and in the series listed under Homo sapiens was “Active” each time.
On to `O=C(/C=C/c1cccnc1)c1ccncc1`, for which the TGI in series [5] is reported as greater than 75%. The outcome in the series with Jurkat [6], with Jurkat [7], in the series with Jurkat [10], in the series with Jurkat [11], in the series with Jurkat [15] and in the series with Mus musculus [16] was Active. Further, the result with Jurkat [20], with Jurkat [22], with Jurkat [24], with Mus musculus [27] and in the series on Mus musculus [28] was Active. Also, the result in the series with Jurkat [8] was inactive. In addition, the inhibition result in the series on Jurkat [9] is “Active”. Also, the “Ratio IC50” value amounted to 10 in series [12], 2 in the series on Jurkat [17] and 10 in series [23]. Further, the Ki – broadly, a measure of affinity in units of concentration, obtained from inhibition or displacement – in series [13] was determined as 25.1 µM. Moreover, in the series on MDA-MB-231 [14], the Imax was determined as 64%. Also, the “growth inhibition (GI)” value with NHBE [18] and with NHBE [25] was “Active” throughout. Further, in series [19], the Activity entry is on record as “Non-toxic”. In the series with Jurkat [21], the inhibition result was “Dose-dependent effect”. For the same compound, the TGI entry with HL-60 [26] was “Active”.
Turning to `Cc1cccc2ccc(/C=C/C(=O)c3ccncc3)nc12`, the inhibition entry with CT26 and in the series with U-87MG ATCC was “Active” each time.
On to `O=C(/C=C/c1ccc(Cl)cc1)c1cccnc1`, for which the “growth inhibition (GI)” value in the series with K562 and with HL-60 [3] was “Dose-dependent effect” each time. Besides, the “growth inhibition (GI)” value in the series with MDA-MB-231 [4], in the series on A549 and in the series listed under Homo sapiens was “Active” each time.
`O=C(/C=C/c1ccccc1Cl)c1ccccn1`: the “growth inhibition (GI)” value in the series with K562, in the series with HL-60 [3], in the series on MDA-MB-231 [4], in the series with A549 and in the series listed under Homo sapiens was “Active” each time.
In the case of `Cl.O=C(/C=C/c1ccc2cccc(O)c2n1)c1ccncc1`, in the series on Lewis lung carcinoma, the inhibition result was “Active”. Moreover, in series [29], the concentration in solution (solubility at 4 h) was 1000 µg/mL. The solubility (in general, the dissolved amount per volume that the medium holds) at 8 h in series [30] was 1000 µg/mL. Moreover, in series [31], the concentration in solution (solubility at 2 h) was 1000 µg/mL.
For `O=C(/C=C/c1ccccc1Cl)c1cccnc1`, the “growth inhibition (GI)” value in the series with K562, in the series on HL-60 [3], in the series with MDA-MB-231 [4], in the series with A549 and in the series filed under Homo sapiens was “Active” in each case.
Take `CC(=O)Nc1ccc(/C=C/C(=O)c2ccncc2)cc1`: the “growth inhibition (GI)” value with K562, with HL-60 [3], in the series with MDA-MB-231 [4], in the series with A549 and in the series filed under Homo sapiens was “Active” throughout.

The values above are taken from ChEMBL document CHEMBL3714717, “Family of PFKFB3 inhibitors with anti-neoplastic activities” (2013).
